# Test results published in PubChem BioAssay (NCI).
# Several values for one entry are separate records, joined by “and”; a condition that tells them apart may be missing. Equal values may be shown once.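 Step 1: Grow cells in 96-well plates. Step 2: Expose to compound for 48 hours at 5 concentrations. Step 3: Interpolate endpoints linearly; if unreached, use highest concentration. Here, GI50 denotes the concentration required for 50% inhibition of growth. Definition used: TGI = concentration required for complete inhibition of growth.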
# Legend:
# Assay in all cases: NCI-60 cell line screen, 48 h
# HT29 colon = system: HT29 colon
# KM12 colon = system: KM12 colon
# RPMI-8226 leukemia = system: RPMI-8226 leukemia
# COLO 205 colon = system: COLO 205 colon
# SF-295 CNS = system: SF-295 CNS
# PC-3 prostate = system: PC-3 prostate
# HCT-116 colon = system: HCT-116 colon
# SF-539 CNS = system: SF-539 CNS
# CAKI-1 renal = system: CAKI-1 renal
# EKVX NSCLC = system: EKVX NSCLC
SMILES,GI50 (HT29 colon),TGI (HT29 colon),TGI (KM12 colon),GI50 (RPMI-8226 leukemia),TGI (RPMI-8226 leukemia),GI50 (COLO 205 colon),TGI (COLO 205 colon),GI50 (SF-295 CNS),GI50 (PC-3 prostate),TGI (PC-3 prostate),GI50 (HCT-116 colon),TGI (HCT-116 colon),TGI (SF-539 CNS),TGI (CAKI-1 renal),GI50 (EKVX NSCLC),TGI (EKVX NSCLC),GI50 (KM12 colon),TGI (SF-295 CNS),GI50 (SF-539 CNS),GI50 (CAKI-1 renal)
COc1ccc(C2=C(c3ccc(OC)c(OC)c3)C(=O)OC2)cc1,< 10 nM,> 100 µM,3.34 µM,49.7 nM,0.329 µM,< 23.8 nM,> 68.1 µM,< 49.6 nM,< 30.1 nM,> 100 µM,< 10 nM,> 100 µM,> 24.2 µM,4.89 µM,1950 nM,> 100 µM,,,,
CCCN1CCN(c2ccc3nc(-c4ccc5nc(-c6cc(OC)ccc6OC)[nH]c5c4)[nH]c3c2)CC1,1800 nM,3.46 µM,3.46 µM,2170 nM,4.79 µM,2170 nM,4.83 µM,15700 nM,1750 nM,4.04 µM,1740 nM,3.16 µM,28.7 µM,30.7 µM,1810 nM,3.35 µM,1860 nM,30.1 µM,14.4 µM,15.9 µM
CC1=C2C[C@H]3[C@@H](CC=C4C[C@@H](O)CC[C@@]43C)[C@@H]2CC[C@]12O[C@@H]1C[C@H](C)CN[C@H]1[C@H]2C,26200 nM,50 µM,50 µM and 54.7 µM,8840 nM and 18100 nM,31.8 µM and 46.2 µM,13600 nM and 4280 nM,38.6 µM and 19.1 µM,40800 nM and 19000 nM,22100 nM and 20200 nM,50 µM and 59.6 µM,10100 nM and 16600 nM,24.7 µM and 31.8 µM,50 µM and 37.8 µM,50 µM and 44.5 µM,51900 nM,> 100 µM,41300 nM and 23400 nM,50 µM and 40.2 µM,21.3 µM and 20 µM,29.2 µM and 20 µM
c1ccc2c(c1)-c1ccccc1C2N1CC2CCC(CC2)C1,,37.6 µM,39.9 µM,,46 µM,,38.1 µM,,,72.1 µM,,46.9 µM,48.9 µM,> 100 µM,,51 µM,,38.1 µM,,
CN(C)C1CCN(C(=O)c2ccc(NC(=O)Nc3ccc(-c4nc(N5CCOCC5)nc(N5CCOCC5)n4)cc3)cc2)CC1,13.8 nM and 15.3 nM and 13.1 nM,0.266 µM and 2.5 µM and 0.302 µM,7.73 µM and 2.5 µM and 2.36 µM,40.4 nM and 61.5 nM and 97.8 nM,,13.6 nM and 33.4 nM and 12 nM,0.155 µM and 0.545 µM and 0.188 µM,73.2 nM and 71.1 nM and 639 nM,< 10 nM and 10.8 nM and 30.9 nM,0.407 µM and 0.216 µM and 1.06 µM,28.9 nM and 44.1 nM and 35.9 nM,5.91 µM and 2.5 µM and 2.8 µM,,,15.8 nM and 20.3 nM and 40.4 nM,,35.5 nM and 42.3 nM and 43.7 nM,0.577 µM and 0.502 µM and 3.52 µM,< 0.0129 µM and 0.0143 µM and 0.0416 µM,4.16 µM and 1.49 µM and 0.496 µM
CC[Si](CC)(CC)OC[C@]1([C@@H]2COC(C)(C)O2)CC=CC(=O)O1,46800 nM,> 100 µM,> 100 µM,18300 nM,65.6 µM,40400 nM,> 100 µM,35200 nM,41500 nM,> 100 µM,39500 nM,> 100 µM,> 100 µM,> 100 µM,31500 nM,> 100 µM,34300 nM,> 100 µM,34.5 µM,33.6 µM
Cc1cc(N2CCN(c3ccnc4cc(Cl)ccc34)CC2)nc(NC2CCCCC2)n1,1790 nM,3.9 µM,6.27 µM,1850 nM,4.8 µM,1650 nM,3.34 µM,1720 nM,1470 nM,3.02 µM,1320 nM,2.91 µM,,3.6 µM,,,2560 nM,3.49 µM,,1.63 µM
